Where two headings read alike, the source gives them in different places.
Experiments:
SK-NEP-1 = test: OncoPanel cell proliferation assay, SK-NEP-1; details: SK-NEP-1
Protocol: Cells were seeded into 384-well plates and incubated in a humidified atmosphere of 5% CO2 at 37° C. Compounds were added the day following cell seeding. At the same time, a time zero untreated cell plate was generated. After a 3-day incubation period, cells were fixed and stained to allow fluorescence imaging of nuclei. Compounds (1 mM stock solutions) were serially diluted in half-log steps from the highest test concentration (1 micromol), and assayed over 10 concentrations with a maximum assay concentration of 0.1% DMSO. Automated fluorescence microscopy was carried out using a Molecular Devices ImageXpress Micro XL high-content imager, and images were collected with a 4× objective. 16-bit TIFF images were acquired and analyzed with MetaXpress 5.1.0.41 software.

SW684 = test: OncoPanel cell proliferation assay, SW684; assay type: cell-based, human
Protocol: (§1) Cells were seeded into 384-well plates and incubated in a humidified atmosphere of 5% CO2 at 37° C. Compounds were added the day following cell seeding. At the same time, a time zero untreated cell plate was generated. After a 3-day incubation period, cells were fixed and stained to allow fluorescence imaging of nuclei. Compounds (1 mM stock solutions) were serially diluted in half-log steps from the highest test concentration ([…]), and assayed over 10 concentrations with a maximum assay concentration of 0.1% DMSO. Automated fluorescence microscopy was carried out using a Molecular Devices ImageXpress Micro XL high-content imager, and images were collected with a 4× objective. 16-bit TIFF images were acquired and analyzed with MetaXpress 5.1.0.41 software.
(§2) Cell proliferation was measured by the fluorescence intensity of an incorporated nuclear dye. The output is referred to as the relative cell count, where the measured nuclear intensity is transformed to percent of control (POC) using the following formula: […]
(§3) Cellular response parameters were calculated using nonlinear regression to a sigmoidal single-site dose response model:
(§4) GI50 is the concentration needed to reduce the observed growth by half (midway between the curve maximum and the time zero value). […] In rare instances, values <0 or >10 may be observed. […] Curve-fitting, calculations, and report generation was performed using a custom data reduction engine and MathIQ based software (AIM).

Hs 729 = test: OncoPanel cell proliferation assay, Hs 729; assay type: cell-based, human
Protocol: as §1, with “Cells were grown in RPMI 1640, 10% FBS, 2 mM L-alanyl-L-glutamine, 1 mM Na pyruvate, or a special medium. Cells” for “Cells”
as §2, §3
(§5) EC50 is the test compound concentration at the curve inflection point or half the effective response (parameter C of the fitted curve solution). GI50 is the concentration needed to reduce the observed growth by half (midway between the curve maximum and the time zero value). “Cell Count Activity Area” is an estimate of the integrated area above the curve (Barretina, et al. The Cancer Cell Line Encyclopedia enables predictive modelling of anticancer drug sensitivity. Nature 483: 603-607). […] In rare instances, values <0 or >10 may be observed. […] Curve-fitting, calculations, and report generation was performed using a custom data reduction engine and MathIQ based software (AIM).

U-138MG = test: OncoPanel cell proliferation assay, U-138MG; assay type: cell-based, human
Protocol: as §1, with “Cells were grown in RPMI 1640, 10% FBS, 2 mM L-alanyl-L-glutamine, 1 mM Na pyruvate, or a special medium. Cells” for “Cells”
as §2, §3, §5

NCIH446 = test: OncoPanel cell proliferation assay, NCIH446; assay type: cell-based, human
Protocol: as §1, with “Cells were grown in RPMI 1640, 10% FBS, 2 mM L-alanyl-L-glutamine, 1 mM Na pyruvate, or a special medium. Cells” for “Cells”
as §2, §3, §5

SNU-5 = test: OncoPanel cell proliferation assay, SNU-5; assay type: cell-based, human
Protocol: as §1, §2, §3, §4

[1] = Homo sapiens, read-out: Cell Count EC50
[2] = Homo sapiens, read-out: Cell Count GI50
[3] = Homo sapiens, read-out: Cell Count IC50

What does the source list for CO[C@H]1C[C@@H]2CC[C@@H](C)[C@@](O)(O2)C(=O)C(=O)N2CCCC[C@H]2C(=O)O[C@H]([C@H](C)C[C@H]2C[C@H]3C[C@@H]2C[C@@H]3O)CC(=O)[C@H](C)/C=C(\C)[C@@H](O)[C@@H](OC)C(=O)[C@H](C)C[C@H](C)/C=C/C=C/C=C/1C [Formula II, C37-[(1R,2S,4R,5S)-5-hyhroxybicyclo[2.2.1]heptane] rapamycin]?
Relative cell count (%) Mean (SK-NEP-1; 1.00E-03 microM): 86.5%; Relative cell count (%) Mean (SK-NEP-1; 1.01E-04 microM): 106.4%; Relative cell count (%) Mean (SK-NEP-1; 3.16E-01 microM): 44.3%; Relative cell count (%) Mean (SK-NEP-1; 3.17E-02 microM): 49.3%; Relative cell count (%) Mean (SK-NEP-1; 3.17E-03 microM): 67.1%; Relative cell count (%) Mean (SK-NEP-1; 3.18E-04 microM): 94.6%; Relative cell count (%) Mean (SK-NEP-1; 3.18E-05 microM): 99.0%; Cell Count Activity Area (SW684): 2.97; Relative cell count (%) Mean (SW684; 1.00E+00 microM): 49.0%; Relative cell count (%) Mean (SW684; 1.00E-01 microM): 55.6%; Relative cell count (%) Mean (SW684; 1.00E-02 microM): 71.4%; Relative cell count (%) Mean (SW684; 1.00E-03 microM): 85.1%; Relative cell count (%) Mean (SW684; 1.01E-04 microM): 94.1%; Relative cell count (%) Mean (SW684; 3.16E-01 microM): 52.4%; Relative cell count (%) Mean (SW684; 3.17E-02 microM): 63.3%; Relative cell count (%) Mean (SW684; 3.17E-03 microM): 71.8%; Relative cell count (%) Mean (SW684; 3.18E-04 microM): 86.4%; Relative cell count (%) Mean (SW684; 3.18E-05 microM): 99.5%; EC50 (SW684; [1]): 0.00457 µM; GI50 (SW684; [2]): 0.00219 µM; IC50 (SW684; [3]): 0.37 µM; Cell Count Activity Area (Hs 729): 0.91; Relative cell count (%) Mean (Hs 729; 1.00E+00 microM): 73.3%; Relative cell count (%) Mean (Hs 729; 1.00E-01 microM): 81.0%; Relative cell count (%) Mean (Hs 729; 1.00E-02 microM): 91.1%; Relative cell count (%) Mean (Hs 729; 1.00E-03 microM): 97.1%; Relative cell count (%) Mean (Hs 729; 1.01E-04 microM): 105.0%; Relative cell count (%) Mean (Hs 729; 3.16E-01 microM): 74.8%; Relative cell count (%) Mean (Hs 729; 3.17E-02 microM): 79.3%; Relative cell count (%) Mean (Hs 729; 3.17E-03 microM): 98.0%; Relative cell count (%) Mean (Hs 729; 3.18E-04 microM): 93.3%; Relative cell count (%) Mean (Hs 729; 3.18E-05 microM): 93.2%; EC50 (Hs 729; [1]): > 1 µM; GI50 (Hs 729; [2]): 0.101 µM; IC50 (Hs 729; [3]): > 1 µM; EC50 (U-138MG; Homo sapiens, U138-MG, U-138 MG, CNS, Glioblastoma, summary Table 5, read-out: EC50): 0.0014 µM; EC50 (U-138MG; Homo sapiens, U138-MG, U-138MG, read-out: Cell Count EC50): 0.00144 µM; GI50 (U-138MG; Homo sapiens, U138-MG, U-138MG, read-out: Cell Count GI50): 0.023 µM; IC50 (U-138MG; Homo sapiens, U138-MG, U-138MG, read-out: Cell Count IC50): > 1 µM; Cell Count Activity Area (U-138MG; U-138MG): 2.59; Relative cell count (%) Mean (U-138MG; U-138MG, 1.00E+00 microM): 60.4%; Relative cell count (%) Mean (U-138MG; U-138MG, 1.00E-01 microM): 67.9%; Relative cell count (%) Mean (U-138MG; U-138MG, 1.00E-02 microM): 76.4%; Relative cell count (%) Mean (U-138MG; U-138MG, 1.00E-03 microM): 74.8%; Relative cell count (%) Mean (U-138MG; U-138MG, 1.01E-04 microM): 87.7%; Relative cell count (%) Mean (U-138MG; U-138MG, 3.16E-01 microM): 65.0%; Relative cell count (%) Mean (U-138MG; U-138MG, 3.17E-02 microM): 69.1%; Relative cell count (%) Mean (U-138MG; U-138MG, 3.17E-03 microM): 73.8%; Relative cell count (%) Mean (U-138MG; U-138MG, 3.18E-04 microM): 78.5%; Relative cell count (%) Mean (U-138MG; U-138MG, 3.18E-05 microM): 87.8%; Cell Count Activity Area (NCIH446): 1.23; Relative cell count (%) Mean (NCIH446; 1.00E+00 microM): 80.9%; Relative cell count (%) Mean (NCIH446; 1.00E-01 microM): 83.6%; Relative cell count (%) Mean (NCIH446; 1.00E-02 microM): 83.2%; Relative cell count (%) Mean (NCIH446; 1.00E-03 microM): 93.7%; Relative cell count (%) Mean (NCIH446; 1.01E-04 microM): 102.5%; Relative cell count (%) Mean (NCIH446; 3.16E-01 microM): 74.9%; Relative cell count (%) Mean (NCIH446; 3.17E-02 microM): 83.3%; Relative cell count (%) Mean (NCIH446; 3.17E-03 microM): 85.8%; Relative cell count (%) Mean (NCIH446; 3.18E-04 microM): 87.3%; Relative cell count (%) Mean (NCIH446; 3.18E-05 microM): 94.2%; EC50 (NCIH446; Homo sapiens, NCI-H446, read-out: Cell Count EC50): > 1 µM; GI50 (NCIH446; Homo sapiens, NCI-H446, read-out: Cell Count GI50): > 1 µM; IC50 (NCIH446; Homo sapiens, NCI-H446, read-out: Cell Count IC50): > 1 µM; Cell Count Activity Area (SNU-5): 1.85; Relative cell count (%) Mean (SNU-5; 1.00E+00 microM): 67.1%; Relative cell count (%) Mean (SNU-5; 1.00E-01 microM): 71.9%; Relative cell count (%) Mean (SNU-5; 1.00E-02 microM): 82.9%; Relative cell count (%) Mean (SNU-5; 1.00E-03 microM): 95.6%; Relative cell count (%) Mean (SNU-5; 1.01E-04 microM): 101.2%; Relative cell count (%) Mean (SNU-5; 3.16E-01 microM): 70.4%; Relative cell count (%) Mean (SNU-5; 3.17E-02 microM): 76.3%; Relative cell count (%) Mean (SNU-5; 3.17E-03 microM): 84.9%; Relative cell count (%) Mean (SNU-5; 3.18E-04 microM): 95.6%; Relative cell count (%) Mean (SNU-5; 3.18E-05 microM): 101.0%; EC50 (SNU-5; [1]): 0.00557 µM; GI50 (SNU-5; [2]): 0.168 µM; IC50 (SNU-5; [3]): > 1 µM

Reference: patent US20200131196A1 (Mount Tam Therapeutics, Inc., priority 2017, published 2020)
